Active and inactive are the calls of the source.
Key:
[1] = viability loss in Vero cells – cell-based, purified and synthesized samples, set 8, cytotoxicity control for M. tuberculosis inhibitor project (AID 602431); type: functional; settings: Mycobacterium tuberculosis
[2] = THP-1 cell cytotoxicity, cytotoxicity control, set 6 (AID 602433); type: functional; settings: Mycobacterium tuberculosis
[3] = molecular target: Apoptotic protease-activating factor 1 (Homo sapiens, UniProt O14727); type: functional
Sequence of Apoptotic protease-activating factor 1 (O14727 whole entry): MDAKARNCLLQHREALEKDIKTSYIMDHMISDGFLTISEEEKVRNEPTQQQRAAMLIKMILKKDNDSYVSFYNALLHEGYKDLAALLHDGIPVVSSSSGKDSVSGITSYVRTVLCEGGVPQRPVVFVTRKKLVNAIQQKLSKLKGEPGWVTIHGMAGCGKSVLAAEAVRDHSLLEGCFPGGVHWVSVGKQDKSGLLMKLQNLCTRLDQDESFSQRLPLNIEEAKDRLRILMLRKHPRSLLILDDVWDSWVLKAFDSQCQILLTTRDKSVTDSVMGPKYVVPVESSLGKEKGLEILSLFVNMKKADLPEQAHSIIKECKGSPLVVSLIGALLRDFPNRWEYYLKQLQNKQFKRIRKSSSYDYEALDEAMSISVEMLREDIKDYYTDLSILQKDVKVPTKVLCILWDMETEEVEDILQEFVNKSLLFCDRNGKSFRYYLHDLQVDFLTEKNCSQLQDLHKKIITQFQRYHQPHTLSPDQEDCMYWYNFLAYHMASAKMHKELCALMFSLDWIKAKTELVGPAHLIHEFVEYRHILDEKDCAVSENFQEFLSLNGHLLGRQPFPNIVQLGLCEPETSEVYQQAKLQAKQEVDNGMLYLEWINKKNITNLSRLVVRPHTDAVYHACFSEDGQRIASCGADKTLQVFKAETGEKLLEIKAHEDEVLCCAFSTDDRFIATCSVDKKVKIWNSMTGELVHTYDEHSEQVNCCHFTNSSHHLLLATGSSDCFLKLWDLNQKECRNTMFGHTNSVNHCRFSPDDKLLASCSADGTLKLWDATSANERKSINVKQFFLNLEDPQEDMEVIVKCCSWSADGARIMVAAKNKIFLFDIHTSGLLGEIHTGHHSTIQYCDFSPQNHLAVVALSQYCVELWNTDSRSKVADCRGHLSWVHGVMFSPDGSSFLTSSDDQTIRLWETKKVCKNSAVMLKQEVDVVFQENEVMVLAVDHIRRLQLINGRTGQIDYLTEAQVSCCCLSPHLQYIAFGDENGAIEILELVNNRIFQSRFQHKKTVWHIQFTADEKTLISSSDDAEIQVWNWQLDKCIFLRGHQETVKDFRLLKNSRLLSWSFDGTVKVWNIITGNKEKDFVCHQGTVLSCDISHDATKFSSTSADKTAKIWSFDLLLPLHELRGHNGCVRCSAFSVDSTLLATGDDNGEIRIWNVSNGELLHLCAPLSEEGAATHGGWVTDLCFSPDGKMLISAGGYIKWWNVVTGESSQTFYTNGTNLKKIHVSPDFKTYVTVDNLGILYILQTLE

[4] = (§1) Counterscreen for antagonists of the orexin 1 receptor (OX1R; HCRTR1): Fluorescence-based cell-based high throughput dose response assay to identify antagonists of the parental CHO cell line. [Related pubchem assays (depositor defined):AID434989, AID435008, AID463079, AID485270, AID492963, AID492964, AID492965, AID493232, AID504699, AID504701]; type: functional
[5] = molecular target: T1, Orexin/Hypocretin receptor type 1 (Homo sapiens, UniProt O43613); assay: Homogeneous Time Resolved Fluorescence (HTRF)-based cell-based high throughput dose response assay for antagonists of the orexin 1 receptor (OX1R; HCRTR1). [Related pubchem assays (depositor defined):AID434989, AID435008, AID463079, AID485270, AID492963, AID492964, AID492965, AID493232, AID504717, AID504718]; type: functional
T1 sequence (O43613 whole entry): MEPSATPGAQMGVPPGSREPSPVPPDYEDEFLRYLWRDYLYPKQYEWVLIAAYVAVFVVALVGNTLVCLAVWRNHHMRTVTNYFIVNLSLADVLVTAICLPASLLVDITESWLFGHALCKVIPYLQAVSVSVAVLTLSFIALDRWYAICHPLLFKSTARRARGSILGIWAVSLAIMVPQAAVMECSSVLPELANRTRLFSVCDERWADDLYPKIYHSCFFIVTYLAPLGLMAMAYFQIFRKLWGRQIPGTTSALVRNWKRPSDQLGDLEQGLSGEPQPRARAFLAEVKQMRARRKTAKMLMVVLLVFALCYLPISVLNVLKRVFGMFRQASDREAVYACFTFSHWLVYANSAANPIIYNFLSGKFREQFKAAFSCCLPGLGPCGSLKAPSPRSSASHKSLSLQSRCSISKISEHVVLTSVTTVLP

Orexin receptor type 2 [6] = molecular target: T2, Orexin receptor type 2 (Homo sapiens, UniProt O43614); assay: Counterscreen assay for antagonists of the orexin 1 receptor (OX1R; HCRTR1): Homogeneous Time Resolved Fluorescence (HTRF)-based cell-based dose response assay for antagonists of the orexin 2 receptor (OX2R; HCRTR2), run by assay provider.; type: functional
T2 sequence (O43614 whole entry): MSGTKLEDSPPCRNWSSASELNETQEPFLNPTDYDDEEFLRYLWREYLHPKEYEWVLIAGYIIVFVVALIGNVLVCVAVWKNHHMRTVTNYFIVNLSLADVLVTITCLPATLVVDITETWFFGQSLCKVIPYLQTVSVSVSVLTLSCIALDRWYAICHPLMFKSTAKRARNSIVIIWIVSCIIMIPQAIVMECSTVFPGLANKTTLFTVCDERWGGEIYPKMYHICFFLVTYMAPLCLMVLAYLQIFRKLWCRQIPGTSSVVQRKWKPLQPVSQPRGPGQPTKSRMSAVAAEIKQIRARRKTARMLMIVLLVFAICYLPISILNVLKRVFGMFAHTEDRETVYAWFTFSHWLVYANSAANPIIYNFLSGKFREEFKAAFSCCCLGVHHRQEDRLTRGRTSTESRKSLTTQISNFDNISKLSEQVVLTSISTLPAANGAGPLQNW

[7] = molecular target: T1, Orexin/Hypocretin receptor type 1; assay: Fluorescence-based cell-based high throughput dose response assay for antagonists of the orexin 1 receptor (OX1R; HCRTR1). [Related pubchem assays (depositor defined):AID434989, AID435008, AID463079, AID485270, AID492963, AID492964, AID492965, AID493232, AID504717, AID504718]; type: functional
[8] = alpha-synuclein stem-loop luciferase translation blockers – H4 neuroglioma cells, luminescence, confirmation (AID 1988); type: functional, cell-based
Orexin receptor type 2 [9] = molecular target: T2, Orexin receptor type 2; assay: Counterscreen assay for antagonists of the orexin 1 receptor (OX1R; HCRTR1): Fluorescence-based cell-based dose response assay for antagonists of the orexin 2 receptor (OX2R; HCRTR2), run by assay provider.; type: functional
[10] = luciferase reporter signal suppression in cells – H4 neuroglioma cells, luminescence, dose response (AID 1990); type: functional, cell-based
[11] = Luminescence Cell-Based Dose Response HTS to Identify Inhibitors of 5'UTR Stem-Loop Driven Prion Protein mRNA Translation in H4 Neuroglioblastoma Cells. [Related pubchem assays: 1827 (Project Summary), 1813 (Primary HTS)]; type: functional
CHO-K1 = assay: as §1, with “Homogeneous time resolved fluorescence (HTRF)-based” for “Fluorescence-based”, “cell-based” for “cell-based high throughput”, “CHO-K1” for “CHO”; type: functional; settings: Cricetulus griseus;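 note: potency for inhibition of ATP-stimulated IP1 production as antagonists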
Beta-galactosidase [12] = molecular target: T3, Beta-galactosidase (Escherichia coli, UniProt Q8VNN2); assay: PubChem AID 485352; type: functional
T3 sequence (Q8VNN2 whole entry): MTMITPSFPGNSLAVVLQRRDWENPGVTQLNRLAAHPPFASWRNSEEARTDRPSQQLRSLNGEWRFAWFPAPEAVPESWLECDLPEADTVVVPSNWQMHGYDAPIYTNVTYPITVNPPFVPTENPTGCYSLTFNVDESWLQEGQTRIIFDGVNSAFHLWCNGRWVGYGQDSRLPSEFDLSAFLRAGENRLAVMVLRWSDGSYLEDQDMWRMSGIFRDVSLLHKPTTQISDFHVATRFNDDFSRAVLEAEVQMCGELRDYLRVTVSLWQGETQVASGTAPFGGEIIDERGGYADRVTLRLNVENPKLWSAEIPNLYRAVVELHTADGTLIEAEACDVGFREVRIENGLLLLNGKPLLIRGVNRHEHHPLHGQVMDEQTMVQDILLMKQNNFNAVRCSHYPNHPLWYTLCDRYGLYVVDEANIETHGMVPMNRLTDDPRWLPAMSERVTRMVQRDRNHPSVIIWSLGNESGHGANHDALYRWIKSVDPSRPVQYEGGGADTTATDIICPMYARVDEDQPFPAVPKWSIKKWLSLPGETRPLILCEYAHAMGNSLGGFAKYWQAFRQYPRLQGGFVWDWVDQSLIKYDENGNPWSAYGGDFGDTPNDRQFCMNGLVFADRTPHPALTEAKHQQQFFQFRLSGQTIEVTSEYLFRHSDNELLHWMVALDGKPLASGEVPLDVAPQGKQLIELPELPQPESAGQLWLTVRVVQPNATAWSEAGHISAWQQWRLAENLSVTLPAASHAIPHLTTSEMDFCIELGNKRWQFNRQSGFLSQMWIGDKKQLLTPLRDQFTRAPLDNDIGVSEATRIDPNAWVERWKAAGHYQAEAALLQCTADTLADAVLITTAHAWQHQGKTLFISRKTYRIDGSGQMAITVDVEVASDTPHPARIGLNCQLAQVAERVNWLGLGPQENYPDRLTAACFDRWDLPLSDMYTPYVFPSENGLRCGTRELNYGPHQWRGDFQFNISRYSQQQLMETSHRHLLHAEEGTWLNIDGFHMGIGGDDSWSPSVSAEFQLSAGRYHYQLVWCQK

[13] = viability of PTEN-deleted HCT116 cells – cell-based, HCT116 PTEN knockout, dose response (AID 1047); type: functional;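 note: HCT116 colon tumor cells with PTEN knocked out; cells exposed to compound for 60 hours before readout; potency for loss of cell viability measured by luminescence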
A-375 [14] = assay: proliferation inhibition in MITF-low A375 cells – cell-based, cherry-pick samples, set 2, counter-screen for MITF modulator project, dose response (AID 540335); type: functional; settings: Homo sapiens
[15] = molecular target: T4, Microphthalmia-associated transcription factor (Homo sapiens, UniProt O75030); assay: reducers of TRPM1 reporter luminescence, concentration series – cell-based, SK-MEL-5, cherry-picked, set 3, MITF inhibitor project, dose response (AID 493073); type: functional;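 note: SK-MEL-5 melanoma cells with luciferase driven by the MITF target TRPM1 promoter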
T4 sequence (O75030 whole entry): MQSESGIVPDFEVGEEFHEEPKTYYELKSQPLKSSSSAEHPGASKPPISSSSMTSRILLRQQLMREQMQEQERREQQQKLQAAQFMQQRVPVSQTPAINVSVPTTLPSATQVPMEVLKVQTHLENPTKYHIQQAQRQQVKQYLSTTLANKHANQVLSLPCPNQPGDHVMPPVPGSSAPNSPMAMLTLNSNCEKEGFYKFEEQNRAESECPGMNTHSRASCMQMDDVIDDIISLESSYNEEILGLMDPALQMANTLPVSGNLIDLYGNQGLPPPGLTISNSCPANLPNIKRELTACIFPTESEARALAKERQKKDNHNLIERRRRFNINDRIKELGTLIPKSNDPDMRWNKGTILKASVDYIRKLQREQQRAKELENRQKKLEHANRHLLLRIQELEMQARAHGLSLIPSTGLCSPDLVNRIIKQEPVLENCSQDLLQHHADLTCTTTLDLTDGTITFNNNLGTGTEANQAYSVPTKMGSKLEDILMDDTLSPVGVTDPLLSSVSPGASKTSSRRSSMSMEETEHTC

[16] = molecular target: T5, Delta-type opioid receptor (Homo sapiens, UniProt P41143); assay: HTS Image-Based Screen for Agonists of the DOR Receptor. [Related pubchem assays (depositor defined):AID1777, AID1786, AID2133]; type: functional
T5 sequence (P41143 whole entry): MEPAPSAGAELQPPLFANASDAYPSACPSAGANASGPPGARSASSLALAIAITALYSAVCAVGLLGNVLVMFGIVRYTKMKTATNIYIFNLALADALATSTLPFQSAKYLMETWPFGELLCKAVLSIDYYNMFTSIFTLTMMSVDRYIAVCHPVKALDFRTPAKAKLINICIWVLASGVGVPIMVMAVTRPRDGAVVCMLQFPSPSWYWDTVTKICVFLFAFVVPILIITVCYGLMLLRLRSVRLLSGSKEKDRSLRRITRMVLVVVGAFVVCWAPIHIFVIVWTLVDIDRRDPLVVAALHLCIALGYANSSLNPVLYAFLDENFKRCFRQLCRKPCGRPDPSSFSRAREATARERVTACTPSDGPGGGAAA

[17] = molecular target: T6, Type-1 angiotensin II receptor (Homo sapiens, UniProt P30556); assay: antagonism of angiotensin II type 1 receptor – cell-based, uHTS hits, selectivity assay for APJ receptor antagonist project, dose response (AID 463214); type: functional;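 note: antagonist potency against angiotensin II stimulated AT1 response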
T6 sequence (P30556 whole entry): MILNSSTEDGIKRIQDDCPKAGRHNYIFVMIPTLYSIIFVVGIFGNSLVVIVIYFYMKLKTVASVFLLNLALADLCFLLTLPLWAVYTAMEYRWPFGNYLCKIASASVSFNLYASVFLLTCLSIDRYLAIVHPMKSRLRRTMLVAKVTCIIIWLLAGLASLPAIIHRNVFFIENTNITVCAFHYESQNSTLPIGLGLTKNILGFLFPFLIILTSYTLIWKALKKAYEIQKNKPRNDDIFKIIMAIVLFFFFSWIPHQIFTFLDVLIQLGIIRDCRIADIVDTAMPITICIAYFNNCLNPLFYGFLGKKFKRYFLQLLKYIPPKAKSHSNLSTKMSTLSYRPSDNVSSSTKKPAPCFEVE

A-375 [18] = assay: MITF: Counter assay: A375 proliferation Measured in Cell-Based System Using Plate Reader - 2084-03_Inhibitor_Dose_DryPowder_Activity. [Related pubchem assays (depositor defined):AID488944]; type: functional; settings: Homo sapiens
Beta-galactosidase [19] = molecular target: T3, Beta-galactosidase; type: functional
[20] = molecular target: T5, Delta-type opioid receptor; assay: HTS Image-Based Screen for Antagonists of the DOR Receptor. [Related pubchem assays (depositor defined):AID1777, AID1785, AID1786, AID2133]; type: functional
HEK293 [21] = assay: HEK293T cell viability loss, resazurin readout – resazurin fluorescence, cytotoxicity control for NF-kB activator project, SAR follow-up (AID 493251); type: functional, cell-based; settings: Homo sapiens
Vero = assay: mammalian cell viability reduction – secondary assay, cytotoxicity control for West Nile virus antiviral project, dose response (AID 1650); type: functional; settings: Chlorocebus sabaeus
[22] = Luminescence-based dose response cell-based high throughput screening assay for cytotoxic compounds using the IEC-6 intestinal epithelial cell line. [Related pubchem assays: 1858 (Summary AID.), 1825 (Counterscreen.), 1907 (Confirmation screen.)]; type: functional
[23] = molecular target: T7, Sphingosine 1-phosphate receptor 4 (Homo sapiens, UniProt O95977); assay: Late stage fluorescence dose response cell-based screening assay for antagonists of the Sphingosine 1-Phosphate Receptor 4 (S1P4). [Related pubchem assays: 1524 (Confirmation screen (S1P4 antagonists).), 1510 (Primary screen (S1P4 antagonists).), 1853 (Summary AID (S1P4 antagonists).), 1692 (Dose response screen (S1P4 antagonists).)]; type: functional
T7 sequence (O95977 whole entry): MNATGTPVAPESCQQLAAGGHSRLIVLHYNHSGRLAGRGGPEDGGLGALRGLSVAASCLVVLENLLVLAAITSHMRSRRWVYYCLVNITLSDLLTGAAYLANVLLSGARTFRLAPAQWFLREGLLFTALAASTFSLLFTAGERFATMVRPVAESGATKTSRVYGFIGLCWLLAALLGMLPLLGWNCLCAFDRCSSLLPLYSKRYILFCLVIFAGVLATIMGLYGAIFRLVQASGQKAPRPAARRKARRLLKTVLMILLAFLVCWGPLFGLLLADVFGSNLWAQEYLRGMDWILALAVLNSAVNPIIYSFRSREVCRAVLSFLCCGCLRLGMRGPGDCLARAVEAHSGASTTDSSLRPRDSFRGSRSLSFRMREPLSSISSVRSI

[24] = molecular target: T7, Sphingosine 1-phosphate receptor 4; assay: Fluorescence dose response cell-based high throughput screening assay for antagonists of the Sphingosine 1-Phosphate Receptor 4 (S1P4). [Related pubchem assays: 1524 (Confirmation in triplicates.), 1510 (Primary screen.)]; type: functional
HEK293 [25] = assay: SAR Analysis of small molecule inhibitors of both B-cell and T-cell specific antigen receptor-induced NF-kB activation in a HEK-293T cell line using a luminescence assay. [Related pubchem assays (depositor defined):AID435003, AID435022, AID465, AID489019, AID489029]; type: functional, cell-based; settings: Homo sapiens
[26] = viability of HCT116 lacking mutant beta-catenin – cell-based, human colon tumor, dose response (AID 1045); type: functional;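 note: HCT116 colon tumor cells with beta catenin knocked out; cells exposed to compound for 60 hours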
Mu-type opioid receptor = Mu-type opioid receptor (Homo sapiens, UniProt P35372); assay: HTS Image-Based Screen for Agonists of the MOR Receptor. [Related pubchem assays (depositor defined):AID1777, AID1785, AID1786, AID2133]; type: functional;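 note: imaging of beta-arrestin GFP recruitment into spots after receptor activation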
Sequence of Mu-type opioid receptor (P35372 whole entry): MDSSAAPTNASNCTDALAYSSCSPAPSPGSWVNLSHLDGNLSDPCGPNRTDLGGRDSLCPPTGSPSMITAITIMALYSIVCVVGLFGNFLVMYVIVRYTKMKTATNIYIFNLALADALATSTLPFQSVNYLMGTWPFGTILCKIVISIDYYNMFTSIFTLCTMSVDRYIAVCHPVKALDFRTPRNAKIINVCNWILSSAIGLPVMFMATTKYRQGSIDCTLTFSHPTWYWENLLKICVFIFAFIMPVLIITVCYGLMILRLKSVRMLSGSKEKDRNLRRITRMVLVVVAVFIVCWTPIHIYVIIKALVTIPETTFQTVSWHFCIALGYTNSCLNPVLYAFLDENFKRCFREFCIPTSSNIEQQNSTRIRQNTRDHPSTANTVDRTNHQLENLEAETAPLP

Jurkat = assay: SAR Analysis of small molecule inhibitors of both B-cell and T-cell specific antigen receptor-induced NF-kB activation in a Jurkat cell line using a luminescence assay. [Related pubchem assays (depositor defined):AID435003, AID435022, AID465, AID489029]; type: functional, cell-based; settings: Homo sapiens
[27] = molecular target: Kappa-type opioid receptor (Homo sapiens, UniProt P41145); type: functional
Sequence of Kappa-type opioid receptor (P41145 whole entry): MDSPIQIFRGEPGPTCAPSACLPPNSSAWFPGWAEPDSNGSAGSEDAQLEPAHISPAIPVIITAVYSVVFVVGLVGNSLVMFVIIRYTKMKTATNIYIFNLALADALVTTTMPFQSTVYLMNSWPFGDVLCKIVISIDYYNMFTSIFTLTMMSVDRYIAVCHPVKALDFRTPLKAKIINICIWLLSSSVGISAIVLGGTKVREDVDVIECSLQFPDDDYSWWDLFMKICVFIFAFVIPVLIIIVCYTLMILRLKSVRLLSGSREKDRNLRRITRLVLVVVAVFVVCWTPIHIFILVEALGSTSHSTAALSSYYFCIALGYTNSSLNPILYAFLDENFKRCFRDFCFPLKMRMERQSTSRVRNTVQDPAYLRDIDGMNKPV

[28] = molecular target: Sphingosine 1-phosphate receptor 1 (Homo sapiens, UniProt P21453); type: functional;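 note: Tango beta-arrestin reporter U2OS cells stimulated with S1P near its EC80; inhibitor potency meaning antagonism of receptor activation by the natural agonist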
Sequence of Sphingosine 1-phosphate receptor 1 (P21453 whole entry): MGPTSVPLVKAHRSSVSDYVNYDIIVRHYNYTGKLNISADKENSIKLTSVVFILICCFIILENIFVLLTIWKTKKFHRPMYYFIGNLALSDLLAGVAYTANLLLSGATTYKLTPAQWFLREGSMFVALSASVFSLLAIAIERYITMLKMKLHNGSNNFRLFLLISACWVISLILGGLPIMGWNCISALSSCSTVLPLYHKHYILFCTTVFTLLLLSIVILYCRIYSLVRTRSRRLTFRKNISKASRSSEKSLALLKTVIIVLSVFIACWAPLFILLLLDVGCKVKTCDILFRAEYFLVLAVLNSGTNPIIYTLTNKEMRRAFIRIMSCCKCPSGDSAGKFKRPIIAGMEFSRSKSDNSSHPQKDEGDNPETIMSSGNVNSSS

COc1ccc(NC(=O)NCc2ccc(C(=O)N3CCC(c4ccccc4)CC3)cc2)cc1
CC50 [1]: 91.3 µM (active) | CC50 [2]: > 98.9 µM (active)

Cc1ccc(-n2nc3ccc(N)cc3n2)cc1Cl
IC50 [3]: > 100 µM (inactive)

CN1C(=O)C2(N=c3ccccc3=N2)c2ccccc21
IC50 [4]: > 49.7 µM (inactive) | IC50 [5]: 3.22 µM (active) | IC50 (Orexin receptor type 2 [6]): > 50 µM (inactive) | IC50 [7]: 13.8 µM (inactive) | EC50 [8]: > 120 µM (not active) | IC50 (Orexin receptor type 2 [9]): > 88.8 µM (inactive) | EC50 [10]: 79.5 µM (active) | EC50 [11]: > 120 µM (not active) | IC50 (CHO-K1): > 66.2 µM (inactive)

Cc1ccc(S(=O)(=O)Nc2cccc3cccnc23)cc1
EC50 (Beta-galactosidase [12]): > 40 µM (inactive) | EC50 [13]: 2.84 µM (active) | AC50 (A-375 [14]): > 35 µM (active) | AC50 [15]: 5.55 µM (active) | EC50 [16]: > 32 µM (inactive) | IC50 [17]: 3.67 µM (active) | AC50 (A-375 [18]): > 35 µM (active) | EC50 (Beta-galactosidase [19]): > 31.5 µM (inactive) | IC50 [20]: > 32 µM (inactive) | IC50 (HEK293 [21]): 56.8 µM (inactive) | CC50 (Vero): 6.89 µM (active) | IC50 [22]: 1.84 µM (active) | IC50 [23]: 0.55 µM (active) | IC50 [24]: 0.63 µM (active) | IC50 (HEK293 [25]): 18.1 µM (active) | EC50 [8]: 11.5 µM (active) | EC50 [26]: 2.5 µM (active) | EC50 [10]: 13.7 µM (active) | EC50 (Mu-type opioid receptor): > 32 µM (inactive) | IC50 (Jurkat): 1.06 µM (active) | IC50 [27]: 2.57 µM (active) | EC50 [11]: 15.2 µM (active) | IC50 [28]: 1.42 µM (active)
